Data reported in patent US10870647B2, “Imidazopyridine derivative, method for preparing same, and pharmaceutical composition containing same as active ingredient for preventing or treating cancer” (DAEGU-GYEONGBUK MEDICAL INNOVATION FOUNDATION, priority 2016, dated 2020).
Like-named read-outs stand apart in the source and are kept apart here.

Experiments:
Assay type in all cases: cell-based
A375 = test: Cancer cell proliferation inhibition, CCK-8, 72 hours
Protocol: (§1) MTS assay was performed to evaluate the cancer cell proliferation inhibition (cancer cell apoptosis) effect of the compounds of examples of the present invention. Particularly, the assay was performed using the cancer cell lines GIST-T1, GIST-T1/816, GIST-430, GIST-430/654, GIST-R1, GIST-R3, M-NFS-60, RetParental (Ba/F3), Retwt (Ba/F3), RetV804M (Ba/F3), RET (LC2/ad-CDC6), FYN (MCP-1), FYN (FN), MDA-MB-231, Huh7, K562, T315I(Ba/F3), SK-MEL-28 and A375. Cell culture was performed using a medium suitable for each cell line.
(§2) In the meantime, MDA-MB-231 and A375 cells were seeded in a 96well plate at the density of 2×10^3/100 μl/well, which stood for a day for attachment. The culture fluid was eliminated. After removing the culture medium, the medium was replaced with the culture medium containing the compounds of the present invention at 3-times serially diluted 9 concentrations (0.0015-10 μM) and the DMSO control, followed by incubation in a 37° C. CO2 incubator for 72 hours. On the other hand, K-562 and Ba/F3-T315I cells were seeded in a 96-well plate at the density of 1×10^4/90 μl/well. The plate containing K-562 cells was added with the culture medium containing the compounds of the present invention at 3-times serially diluted 9 concentrations (0.015-100 μM) and the DMSO control (10 μl/well). The plate containing Ba/F3-T315I cells was added with the culture medium containing the compounds of the present invention at 5-times serially diluted 9 concentrations (0.000256-100 μM) and the DMSO control (10 μl/well). The final concentration was made 0-10 μM and then the cells were cultured in a 37° C. CO2 incubator for 72 hours.
(§3) A375, K-562 and Ba/F3-T315I cells were added with CCK-8 solution at the concentration of 10 μl/well, followed by orbital shaking for 30 seconds. Then, the cells were cultured in a 37° C. CO2 incubator for 2 hours. OD450 was measured by using a microplate reader. The OD value of the well treated with the culture medium and CCK-8 solution alone was subtracted from the OD value measured above, followed by calculation of IC50 using GraphPad Prism 6 software.

K562 = test: as above
Protocol: as §1, §2, §3

T315I (Ba/F3) = biological target: T1, T315I (Ba/F3) (Homo sapiens, UniProt P00519, T315I, cells depend on it); test: as above; conditions: read-out: T315I (Ba/F3) IC50
T1 construct: fused on or other part: P11274 (Breakpoint cluster region protein)
Protocol: as §1, §2, §3

MDA-MB-231 = test: Real time cell proliferation, IncuCyte ZOOM, 72 hours
Huh7 = test: Cancer cell proliferation inhibition, MTS assay, 72 hours; conditions: Homo sapiens, Huh-7
Protocol: as §1
(§4) Other cell lines were seeded in a 96-well plate containing the corresponding medium appropriate for each cell line at the density of 3,000 cells/well, followed by culture in a 5% CO2 and 37° C. incubator for 24 hours. The compounds of examples of the present invention were added to each well at the concentration of from the highest volume of 50 μM to every step of serial dilution. The solvent control, dimethylsulfoxide (DMSO), was treated at the same concentration of 0.05% (v/v) as the volume used for the treatment of the compounds above. Each cell line was cultured for 72 hours. To investigate the cell viability, the MTS and PMS (phenazine methosulfate) mixture provided in CellTiter 96® AQuous Non-Radioactive Cell Proliferation Assay Kit (Promega) was added to each cell culture medium, followed by additional culture at 37° C. for 2 hours. Then, OD450 was measured. Based on OD of the solvent control cells not treated with any compounds of the present invention, the cell proliferation inhibition rate was calculated according to the treatment concentration of each compound. At this time, the concentration of each compound that was able to inhibit cancer cell proliferation up to 50% was determined as IC50 (uM). IC50 of each compound was determined with three data sets and calculated by using Prism softwater (version 6.01, GraphPad).

RET (LC2/ad-CDC6) = test: as above; conditions: 72 h
Protocol: as §1, §4

Compound | IC50 (A375; Homo sapiens, A-375, 72 h) | IC50 (K562; Homo sapiens, K562, 72 h) | GI50 (T315I (Ba/F3)) | IC50 (MDA-MB-231; Homo sapiens, MDA-MB-231, 72 h) | IC50 (Huh7) | IC50 (RET (LC2/ad-CDC6)) | IC50 (A375) | IC50 (K562) | IC50 (MDA-MB-231)
Cc1ccc(C(=O)Nc2ccc(CN3CCCN(C)CC3)c(C(F)(F)F)c2)cc1C#Cc1cnc2c(Nc3cnn(C(C)C)c3)cccn12 [Example 38, 3-((8-((1-isopropyl-1H-pyrazol-4-yl)amino)imidazo[1,2-a]pyridin-3-yl)ethynyl)-4-methyl-N-(4-((4-methyl-1,4-diazepin-1-yl)methyl)-3-(trifluoromethyl)phenyl)benzamide] | 668 nM | 19 nM | 133 nM | 770 nM | 247 nM | – | – | – | –
Cc1ccc(C(=O)Nc2ccc(CN3CCCN(C)CC3)c(C(F)(F)F)c2)cc1C#Cc1cnc2c(Nc3cnn(CCCN(C)C)c3)cccn12 [Example 39, 3-((8-((1-(3-(dimethylamino)propyl)-1H-pyrazol-4-yl)amino)imidazo[1,2-a]pyridin-3-yl)ethynyl)-4-methyl-N-(4-((4-methyl-1,4-diazepin-1-yl)methyl)-3-(trifluoromethyl)phenyl)benzamide] | 1520 nM | 43 nM | 238 nM | 1460 nM | 457 nM | – | – | – | –
Cc1cc(Nc2cccn3c(C#Cc4cc(C(=O)Nc5ccc(CN6CCC(N(C)C)C6)c(C(F)(F)F)c5)ccc4C)cnc23)no1 (stereo not shown) [Example 45, N-(4-((3-(dimethylamino)pyrrolidin-1-yl)methyl)-3-(trifluoromethyl)phenyl)-4-methyl-3-((8-((5-methylisoxazol-3-yl)amino)imidazo[1,2-a]pyridin-3-yl)ethynyl)benzamide] | 720 nM | 2 nM | 145 nM | 816 nM | – | > 10 nM | – | – | –
COCCCn1cc(Nc2cccn3c(C#Cc4cc(C(=O)Nc5ccc(CN6CCN(C)[C@@H](C)C6)c(C(F)(F)F)c5)ccc4C)cnc23)cn1 [Example 46, (S)—N-(4-((3,4-dimethylpiperazin-1-yl)methyl)-3-(trifluoromethyl)phenyl)-3-((8-((1-(3-methoxypropyl)-1H-pyrazol-4-yl)amino)imidazo[1,2-a]pyridin-3-yl)ethynyl)-4-methylbenzamide] | 250 nM | 7 nM | 6.27 nM | 273 nM | – | > 10 nM | – | – | –
Cc1ccc(C(=O)Nc2ccc(CN3CCN(C)[C@@H](C)C3)c(C(F)(F)F)c2)cc1C#Cc1cnc2c(Nc3cnn(C(C)C)c3)cccn12 [Example 48, (S)—N-(4-((3,4-dimethylpiperazin-1-yl)methyl)-3-(trifluoromethyl)phenyl)-3-((8-((1-isopropyl-1H-pyrazol-4-yl)amino)imidazo[1,2-a]pyridin-3-yl)ethynyl)-4-methylbenzamide] | 406 nM | < 1 nM | 86.3 nM | 382 nM | – | > 10 nM | – | – | –
Cc1ccc(C(=O)Nc2ccc(CN3CCN(C)[C@@H](C)C3)c(C(F)(F)F)c2)cc1C#Cc1cnc2c(Nc3cnn(CCCN(C)C)c3)cccn12 [Example 49, (S)-3-((8-((1-(3-(dimethylamino)propyl)-1H-pyrazol-4-yl)amino)imidazo[1,2-a]pyridin-3-yl)ethynyl)-N-(4-((3,4-dimethylpiperazin-1-yl)methyl)-3-(trifluoromethyl)phenyl)-4-methylbenzamide] | 1020 nM | 5 nM | 217 nM | 513 nM | – | > 10 nM | – | – | –
CCn1cc(Nc2cccn3c(C#Cc4cc(C(=O)Nc5ccc(CN6CC[C@@H](N(C)C)C6)c(C(F)(F)F)c5)ccc4C)cnc23)cn1 [Example 53, (R)—N-(4-((3-(dimethylamino)pyrrolidin-1-yl)methyl)-3-(trifluoromethyl)phenyl)-3-((8-((1-ethyl-1H-pyrazol-4-yl)amino)imidazo[1,2-a]pyridin-3-yl)ethynyl)-4-methylbenzamide] | 285 nM | < 1 nM | 2.67 nM | 324 nM | – | > 10 nM | – | – | –
CCn1cc(Nc2cccn3c(C#Cc4cc(C(=O)Nc5ccc(CN6CC[C@H](N(C)C)C6)c(C(F)(F)F)c5)ccc4C)cnc23)cn1 [Example 54, (S)—N-(4-((3-(dimethylamino)pyrrolidin-1-yl)methyl)-3-(trifluoromethyl)phenyl)-3-((8-((1-ethyl-1H-pyrazol-4-yl)amino)imidazo[1,2-a]pyridin-3-yl)ethynyl)-4-methylbenzamide] | 454 nM | < 1 nM | 30.9 nM | 388 nM | – | > 10 nM | – | – | –
COCCCn1cc(Nc2cccn3c(C#Cc4cc(C(=O)Nc5ccc(CN6CCN(C)CC6)c(C(F)(F)F)c5)ccc4C)cnc23)cn1 [Example 65] | 221 nM | < 1.5 nM | – | 219 nM | 33 nM | > 10 nM | – | – | –
COCCn1cc(Nc2cccn3c(C#Cc4cc(C(=O)Nc5cc(-n6cnc(C)c6)cc(C(F)(F)F)c5)ccc4C)cnc23)cn1 [Example 71] | – | 6 nM | 25.2 nM | 4730 nM | 955 nM | – | – | – | –
CCN1CCN(Cc2ccc(NC(=O)c3ccc(C)c(C#Cc4cnc5c(Nc6cnn(CCN(C)C)c6)cccn45)c3)cc2C(F)(F)F)CC1 [Example 73] | – | < 1.5 nM | 421 nM | 916 nM | – | – | – | – | –

Further lines, results first:

IC50 (A375; Homo sapiens, A-375, 72 h) | IC50 (K562; Homo sapiens, K562, 72 h) | GI50 (T315I (Ba/F3)) | IC50 (MDA-MB-231; Homo sapiens, MDA-MB-231, 72 h) | IC50 (Huh7) | IC50 (RET (LC2/ad-CDC6)) | IC50 (A375) | IC50 (K562) | IC50 (MDA-MB-231) | Compound
> 10000 nM | 2 nM | 663 nM | > 10000 nM | 1800 nM | – | – | – | – | Cc1ccc(C(=O)Nc2ccc3ncsc3c2)cc1C#Cc1cnc2c(Nc3cnn(C)c3)cccn12 [Example 37, N-(benzo[d]thiazol-6-yl)-4-methyl-3-((8-((1-methyl-1H-pyrazol-4-yl)amino)imidazo[1,2-a]pyridin-3-yl)ethynyl)benzamide]
> 10000 nM | < 1 nM | 1140 nM | > 10000 nM | – | > 10 nM | – | – | – | CCn1cc(Nc2cccn3c(C#Cc4cc(C(=O)Nc5ccc(N6CCOCC6)c(F)c5)ccc4C)cnc23)cn1 [Example 56, 3-((8-((1-ethyl-1H-pyrazol-4-yl)amino)imidazo[1,2-a]pyridin-3-yl)ethynyl)-N-(3-fluoro-4-morpholinophenyl)-4-methylbenzamide]
> 10000 nM | 763 nM | 5410 nM | > 10000 nM | 5650 nM | – | – | – | – | Cc1ccc(NC(=O)C2(C(=O)Nc3ccc(F)cc3)CC2)cc1C#Cc1cnc2c(Nc3cnn(C)c3)cccn12 [Example 79]
– | – | 190 nM | – | – | – | 1960 nM | 43 nM | 1730 nM | Cc1ccc(C(=O)Nc2ccc(CN3CCN(C)[C@H](C)C3)c(C(F)(F)F)c2)cc1C#Cc1cnc2c(Nc3cnn(C(C)C)c3)cccn12 [Example 81, (R)—N-(4-((3,4-dimethylpiperazin-1-yl)methyl)-3-(trifluoromethyl)phenyl)-3-((8-((1-isopropyl-1H-pyrazol-4-yl)amino)imidazo[1,2-a]pyridin-3-yl)ethynyl)-4-methylbenzamide]
> 10000 nM | 290 nM | 3080 nM | > 10000 nM | – | > 10 nM | – | – | – | Cc1ccc(NC(=O)Nc2cc(C(C)(C)C(F)(F)F)on2)cc1C#Cc1cnc2c(Nc3cnn(C(C)C)c3)cccn12 [Example 85, 1-(3-((8-((1-isopropyl-1H-pyrazol-4-yl)amino)imidazo[1,2-a]pyridin-3-yl)ethynyl)-4-methylphenyl)-3-(5-(1,1,1-trifluoro-2-methylpropan-2-yl)isoxazol-3-yl)urea]
